ChEMBL document CHEMBL5034015, “Structure-Based Optimization of 3-Phenyl-N-(2-(3-phenylureido)ethyl)thiophene-2-sulfonamide Derivatives as Selective Mcl-1 Inhibitors” (J Med Chem, 2021)
The source made the active and inactive calls.

What was measured:
[1] = tested on: HL-60; test: cells; details: Homo sapiens, HL-60, 48 h
Description: Cytotoxicity against human HL-60 cells assessed as inhibition of cell growth incubated for 48 hrs by CCK8 assay

[2] = tested on: RS4-11; test: Induction of apoptosis in human RS4-11 cells assessed as necrotic cells at 20 uM measured after 24 hrs by Annexin V/7-AAD and MitoSense Red staining based flow cytometry analysis relative to control (reference value: 1.11 %); assay type: functional
[3] = target: T1, Bcl-2-like protein 1 (Homo sapiens, UniProt Q07817); test: Binding affinity to full length human Bcl-xl expressed in Escherichia coli BL21 (DE3) at up to 100 uM preincubated for 30 mins followed by 5-FAM-QEDIIIINIARHLAQVGDSMD-RSIPPG tracer addition and measured after 20 mins by fluorescence polarization assay; details: dose microM <=100, time 50.0 min
T1 sequence (Q07817 whole entry): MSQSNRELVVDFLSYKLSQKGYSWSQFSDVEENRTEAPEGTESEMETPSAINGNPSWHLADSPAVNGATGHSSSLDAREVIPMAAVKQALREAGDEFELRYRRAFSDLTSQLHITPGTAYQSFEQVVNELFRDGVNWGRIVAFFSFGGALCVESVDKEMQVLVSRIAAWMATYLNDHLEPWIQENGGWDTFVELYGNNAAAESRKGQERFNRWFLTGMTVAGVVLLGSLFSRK

[4] = tested on: MCF7; test: Inhibition of Bcl-2/Bim interaction in human MCF7 cells assessed as disruption of Bcl-2/Bim complex at 10 uM measured after 24 hrs by co-immunoprecipitation based western blot analysis relative to control; assay type: cell-based
[5] = tested on: RS4-11; test: cells; details: Homo sapiens, RS4-11, 48 h
Description: Cytotoxicity against human RS4-11 cells assessed as inhibition of cell growth incubated for 48 hrs by CCK8 assay

[6] = tested on: RS4-11; test: Induction of apoptosis in human RS4-11 cells assessed as early apoptotic cells at 20 uM measured after 24 hrs by Annexin V/7-AAD and MitoSense Red staining based flow cytometry analysis relative to control (reference value: 3.75 %); assay type: functional
[7] = tested on: RS4-11; test: Induction of apoptosis in human RS4-11 cells assessed as viable cells at 20 uM measured after 24 hrs by Annexin V/7-AAD and MitoSense Red staining based flow cytometry analysis relative to control (reference value: 94.15 %); assay type: functional; details: read-out: Activity
[8] = tested on: HEK-293T; test: Cytotoxicity against HEK293T cells assessed as reduction in cell viability incubated for 48 hrs by CCK8 assay; details: Homo sapiens
[9] = tested on: HeLa; test: cells; details: Homo sapiens, 48 h
Description: Cytotoxicity against human HeLa cells assessed as inhibition of cell growth incubated for 48 hrs by CCK8 assay

[10] = tested on: RS4-11; test: Induction of apoptosis in human RS4-11 cells assessed as late apoptotic cells at 20 uM measured after 24 hrs by Annexin V/7-AAD and MitoSense Red staining based flow cytometry analysis relative to control (reference value: 0.99 %); assay type: functional
[11] = target: Induced myeloid leukemia cell differentiation protein Mcl-1/Bcl-2-like protein 11 (Homo sapiens) (UniProt Q07820+O43521); test: Inhibition of MCL1/Bim interaction in human MCF7 cells assessed as disruption of MCL1/Bim complex at 10 uM measured after 24 hrs by co-immunoprecipitation based western blot analysis relative to control; assay type: cell-based
Induced myeloid leukemia cell differentiation protein Mcl-1/Bcl-2-like protein 11 (Homo sapiens), sequence (O43521 whole entry, looked up, the tested form may be a part): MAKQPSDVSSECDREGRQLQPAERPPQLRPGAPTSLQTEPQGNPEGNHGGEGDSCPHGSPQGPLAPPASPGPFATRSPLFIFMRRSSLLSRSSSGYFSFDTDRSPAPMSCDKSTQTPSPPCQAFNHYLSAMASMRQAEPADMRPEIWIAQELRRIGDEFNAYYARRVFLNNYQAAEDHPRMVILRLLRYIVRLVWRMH
Induced myeloid leukemia cell differentiation protein Mcl-1/Bcl-2-like protein 11 (Homo sapiens), sequence (Q07820 whole entry, looked up, the tested form may be a part): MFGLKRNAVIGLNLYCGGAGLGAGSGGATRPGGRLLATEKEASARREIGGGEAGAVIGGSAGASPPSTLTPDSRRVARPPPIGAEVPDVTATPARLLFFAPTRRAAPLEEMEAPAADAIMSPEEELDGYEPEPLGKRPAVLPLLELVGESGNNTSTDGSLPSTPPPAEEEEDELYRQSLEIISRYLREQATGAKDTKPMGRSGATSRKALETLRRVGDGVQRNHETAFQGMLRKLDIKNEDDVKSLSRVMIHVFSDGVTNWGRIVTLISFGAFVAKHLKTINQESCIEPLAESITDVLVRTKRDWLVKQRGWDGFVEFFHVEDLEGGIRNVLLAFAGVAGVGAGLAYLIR

[12] = target: T2, Induced myeloid leukemia cell differentiation protein Mcl-1 (Homo sapiens, UniProt Q07820); test: Binding affinity to 15N-labeled human MCL1 (172 to 327 residues) expressed in Escherichia coli BL21 (DE3) assessed as chemical shift at M231 residue at 0.3 mM incubated for 1 hr by 15N HSQC NMR spectroscopy analysis
T2 sequence (Q07820 whole entry, the tested form may be a part): as the sequence (Q07820 whole entry, looked up, the tested form may be a part) above

[13] = target: T2, Induced myeloid leukemia cell differentiation protein Mcl-1; test: Binding affinity to 15N-labeled human MCL1 (172 to 327 residues) expressed in Escherichia coli BL21 (DE3) assessed as chemical shift at L235 residue at 0.3 mM incubated for 1 hr by 15N HSQC NMR spectroscopy analysis
[14] = target: T2, Induced myeloid leukemia cell differentiation protein Mcl-1; test: Binding affinity to 15N-labeled human MCL1 (172 to 327 residues) expressed in Escherichia coli BL21 (DE3) assessed as chemical shift at H224 residue at 0.3 mM incubated for 1 hr by 15N HSQC NMR spectroscopy analysis
[15] = target: T2, Induced myeloid leukemia cell differentiation protein Mcl-1; test: Binding affinity to 15N-labeled human MCL1 (172 to 327 residues) expressed in Escherichia coli BL21 (DE3) assessed as chemical shift at R263 residue at 0.3 mM incubated for 1 hr by 15N HSQC NMR spectroscopy analysis
[16] = target: T2, Induced myeloid leukemia cell differentiation protein Mcl-1; test: Binding affinity to 15N-labeled human MCL1 (172 to 327 residues) expressed in Escherichia coli BL21 (DE3) assessed as chemical shift at M250 residue at 0.3 mM incubated for 1 hr by 15N HSQC NMR spectroscopy analysis
[17] = target: T2, Induced myeloid leukemia cell differentiation protein Mcl-1; test: Binding affinity to 15N-labeled human MCL1 (172 to 327 residues) expressed in Escherichia coli BL21 (DE3) assessed as chemical shift at F228 residue at 0.3 mM incubated for 1 hr by 15N HSQC NMR spectroscopy analysis
[18] = target: T3, Apoptosis regulator Bcl-2 (Homo sapiens, UniProt P10415); test: Binding affinity to full length human Bcl-2 expressed in Escherichia coli BL21 (DE3) at up to 100 uM preincubated for 30 mins followed by 5-FAM-QEDIIIINIARHLAQVGDSMD-RSIPPG tracer addition and measured after 20 mins by fluorescence polarization assay; details: dose microM <=100, time 50.0 min
T3 sequence (P10415 whole entry): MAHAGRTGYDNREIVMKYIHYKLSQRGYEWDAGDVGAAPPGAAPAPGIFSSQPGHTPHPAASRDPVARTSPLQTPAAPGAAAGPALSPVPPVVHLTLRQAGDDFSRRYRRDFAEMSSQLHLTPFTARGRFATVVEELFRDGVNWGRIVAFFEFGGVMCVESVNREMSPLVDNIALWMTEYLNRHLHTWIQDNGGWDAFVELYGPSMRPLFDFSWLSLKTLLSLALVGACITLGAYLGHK

[19] = tested on: HL-60; test: Cytotoxicity against human HL-60 cells assessed as cell viability at 20 uM incubated for 48 hrs by CCK8 assay relative to control; assay type: functional; details: read-out: Activity
[20] = target: T2, Induced myeloid leukemia cell differentiation protein Mcl-1; test: Binding affinity to full length human MCL1 expressed in Escherichia coli BL21 (DE3) at 100 uM preincubated for 30 mins followed by 5-FAM-QEDIIIINIARHLAQVGDSMD-RSIPPG tracer addition and measured after 20 mins by fluorescence polarization assay relative to control; details: time 50.0 min
[21] = target: T3, Apoptosis regulator Bcl-2; test: Binding affinity to full length human Bcl-2 expressed in Escherichia coli BL21 (DE3) at 100 uM preincubated for 30 mins followed by 5-FAM-QEDIIIINIARHLAQVGDSMD-RSIPPG tracer addition and measured after 20 mins by fluorescence polarization assay relative to control; details: time 50.0 min
[22] = Cytotoxicity against HEK293T cells assessed as cell viability at 20 uM incubated for 48 hrs by CCK8 assay relative to control; assay type: cell-based, HEK-293T; details: human, read-out: Activity
[23] = target: T1, Bcl-2-like protein 1; test: Binding affinity to full length human Bcl-xl expressed in Escherichia coli BL21 (DE3) at 100 uM preincubated for 30 mins followed by 5-FAM-QEDIIIINIARHLAQVGDSMD-RSIPPG tracer addition and measured after 20 mins by fluorescence polarization assay relative to control; details: time 50.0 min
[24] = target: T2, Induced myeloid leukemia cell differentiation protein Mcl-1; test: Binding affinity to full length human MCL1 expressed in Escherichia coli BL21 (DE3) assessed as inhibition constant preincubated for 30 mins followed by 5-FAM-QEDIIIINIARHLAQVGDSMD-RSIPPG tracer addition and measured after 20 mins by fluorescence polarization assay
[25] = tested on: HeLa; test: Cytotoxicity against human HeLa cells assessed as cell viability at 20 uM incubated for 48 hrs by CCK8 assay relative to control; assay type: functional; details: read-out: Activity
[26] = tested on: RS4-11; test: Induction of apoptosis in human RS4-11 cells assessed as increase in cleaved PARP expression incubated for 48 hrs by western blot analysis; assay type: functional, cell-based
[27] = tested on: RS4-11; test: Induction of apoptosis in human RS4-11 cells assessed as increase in cleaved caspase 9 expression incubated for 48 hrs by western blot analysis; assay type: functional, cell-based
[28] = tested on: RS4-11; test: Induction of apoptosis in human RS4-11 cells assessed as increase in cleaved caspase 3 expression incubated for 48 hrs by western blot analysis; assay type: functional, cell-based
[29] = tested on: RS4-11; test: Cytotoxicity against human RS4-11 cells assessed as cell viability at 20 uM incubated for 48 hrs by CCK8 assay relative to control; assay type: functional; details: read-out: Activity

IC50 [1] | Activity [3] | IC50 [5] | IC50 [9] | Activity [18] | inhibition [20] | inhibition [21] | inhibition [23] | SMILES | IC50 [8] | viability at 20 µM [19] | viability at 20 µM [25] | further results
3.7 µM | inactive | 5.6 µM | 9.7 µM | inactive | – | – | – | Cc1ccc(-c2ccsc2S(=O)(=O)NCCNC(=O)Nc2cc(C(F)(F)F)cc(C(F)(F)F)c2)c(Oc2ccc(O)c(O)c2)c1 | > 20 µM | – | – | Activity [2]: 3.19%; inhibition [4]: inactive; Activity [6]: 12.98%; viability at 20 µM [7]: 8.79%; Activity [10]: 75.04%; inhibition [11]: 70%; Activity [12]: Active; Activity [13]: Active; Activity [14]: Active; Activity [15]: Active; Activity [16]: Active; Activity [17]: Active
– | – | > 50 µM | > 50 µM | – | 66% | 25% | 29% | COc1ccc(Oc2ccccc2-c2ccsc2S(=O)(=O)N2CCN(C(=S)Nc3cc(C(F)(F)F)cc(C(F)(F)F)c3)CC2)cc1OC | – | 38% | – | viability at 48 h, 20 µM [22]: 42%
– | inactive | 6.8 µM | > 50 µM | inactive | – | – | – | CC(C)c1ccc(Oc2ccc(O)c(O)c2)c(-c2ccsc2S(=O)(=O)NCCNC(=O)Nc2cc(C(F)(F)F)cc(C(F)(F)F)c2)c1 | > 20 µM | 23% | – | Ki [24]: 0.36 µM
3.4 µM | inactive | 6.1 µM | – | inactive | – | – | – | Cc1ccc(-c2ccsc2S(=O)(=O)NCCNC(=S)Nc2cccc([N+](=O)[O-])c2)c(Oc2ccc(O)c(O)c2)c1 | 7.9 µM | – | 40% | Ki [24]: 7.5 µM
2.8 µM | inactive | 3.3 µM | 6.4 µM | inactive | – | – | – | COc1ccc(Oc2ccccc2-c2ccsc2S(=O)(=O)NCCNC(=S)Nc2cc(C(F)(F)F)cc(C(F)(F)F)c2)cc1OC | 6.8 µM | – | – | Activity [2]: 0.26%; inhibition [4]: 20%; Activity [26]: Dose-Dependent Effect; Activity [6]: 3.1%; viability at 20 µM [7]: 2.6%; Activity [10]: 93.97%; Activity [27]: Dose-Dependent Effect; Activity [28]: Dose-Dependent Effect
5.3 µM | – | 9 µM | – | – | 81% | 31% | 28% | O=[N+]([O-])c1ccc(NC(=S)N2CCN(S(=O)(=O)c3sccc3-c3ccccc3Oc3ccc(O)c(O)c3)CC2)cc1 | > 20 µM | – | 49% | –
– | – | – | – | – | 47% | 7% | -8% | O=C(Nc1cc(C(F)(F)F)cc(C(F)(F)F)c1)N1CCN(S(=O)(=O)c2sccc2-c2ccccc2Oc2ccc(O)c(O)c2)CC1 | – | 15% | 20% | viability at 20 µM [29]: 10%; viability at 48 h, 20 µM [22]: 29%
> 50 µM | – | > 50 µM | > 50 µM | – | 41% | 18% | 37% | COc1ccc(Oc2ccc([N+](=O)[O-])cc2-c2ccsc2S(=O)(=O)N2CCN(C(=S)Nc3ccc(Cl)cc3)CC2)cc1OC | > 50 µM | – | – | inhibition [11]: 30%
